Results: patent US12611423B2, “Medical use of tafoxiparin” (DILAFOR AB, priority 2022, dated 2026)

Tests used:
[1] = anticoagulant activity (descriptive)
[2] = tested on: factor Xa; assay: antifactor Xa activity of tafoxiparin; type: biochemical; conditions: definition of tafoxiparin
[3] = tested on: factor IIa; assay: antifactor IIa activity of tafoxiparin; type: biochemical; conditions: definition of tafoxiparin
Chain of factor IIa (P01008 33-464): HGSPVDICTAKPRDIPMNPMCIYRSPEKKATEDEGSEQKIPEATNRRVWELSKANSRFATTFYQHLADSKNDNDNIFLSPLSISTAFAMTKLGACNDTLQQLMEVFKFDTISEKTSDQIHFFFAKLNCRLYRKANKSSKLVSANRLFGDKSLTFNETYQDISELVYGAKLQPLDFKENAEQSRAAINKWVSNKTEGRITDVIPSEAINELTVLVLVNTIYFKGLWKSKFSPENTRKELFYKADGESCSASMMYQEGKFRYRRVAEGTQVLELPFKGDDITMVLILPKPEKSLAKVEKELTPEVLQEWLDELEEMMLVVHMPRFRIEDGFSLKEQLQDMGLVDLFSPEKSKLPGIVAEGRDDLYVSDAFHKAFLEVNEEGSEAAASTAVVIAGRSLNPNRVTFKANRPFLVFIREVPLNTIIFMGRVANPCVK

Chain of factor Xa (P01008 33-464 partner): as the sequence (P01008 33-464) above
Chain of factor Xa (P00742 235-488 limits assumed, further chain): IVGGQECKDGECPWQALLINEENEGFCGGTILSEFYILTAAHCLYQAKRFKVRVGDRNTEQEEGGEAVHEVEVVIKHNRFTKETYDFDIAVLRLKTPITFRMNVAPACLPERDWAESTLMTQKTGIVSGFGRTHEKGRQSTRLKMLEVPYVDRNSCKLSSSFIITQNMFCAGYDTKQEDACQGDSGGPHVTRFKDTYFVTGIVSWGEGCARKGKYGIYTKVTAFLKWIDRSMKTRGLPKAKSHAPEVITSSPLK

In the case of tafoxiparin, the anticoagulant activity [1] is reported as “essentially no anticoagulant activity”, the “antifactor Xa activity” value [2] is reported as “less than 10 IU/mg” and the “antifactor Ila activity” value [3] is reported as “less than 10 IU/mg”.
